Laboratory results: US6495133B1, “Gliocladium roseum strains useful for the control of fungal pathogens in plants” (priority 1998, dated 2002)

Key:
[1] = test system: Rhizoctonia solani; assay: Control of rhizoctonia root rot, growth room experiments; type: in vivo
[2] = test system: Mycosphaerella pinodes; assay: Control of seed-borne phase of mycosphaerella blight in field pea, field experiments; type: in vivo; settings: for increased emergence by / increased yield by: average of two cultivars
[3] = Brussel Sprouts (cv. Long Island)
[4] = Cauliflower (cv. Early Snowball)
[5] = Egg Plant (cv. Early Long Purple)
[6] = Healthy-looking seed (HL), 1995, AC Tamor
[7] = Healthy-looking seed (HL), 1995, Radley
[8] = Healthy-looking seed (HL), 1996, AC Tamor
[9] = Healthy-looking seed (HL), 1996, Radley
[10] = Visibly poor seed (VP), 1995, AC Tamor
[11] = Visibly poor seed (VP), 1995, Radley
[12] = Visibly poor seed (VP), 1996, AC Tamor
[13] = Visibly poor seed (VP), 1996, Radley

CN(C)C(=S)SSC(=S)N(C)C [Thiram, thiram]
Dry wt. ([1]; Broccoli (cv. Green Sprouting)): 0.01 a g/plant | Emergence ([1]; Broccoli (cv. Green Sprouting)): 34.0 a % | Fresh wt. ([1]; Broccoli (cv. Green Sprouting)): 0.1 a g/plant | Root/foot rot severity ([1]; Broccoli (cv. Green Sprouting)): 5.1 ab 0-9 | Dry wt. [1, 3]: 0.02 a g/plant | Emergence [1, 3]: 19.5 b % | Fresh wt. [1, 3]: 0.2 ab g/plant | Root/foot rot severity [1, 3]: 2.8 a 0-9 | Dry wt. ([1]; Cabbage (cv. Golden Acre)): 0.01 a g/plant | Emergence ([1]; Cabbage (cv. Golden Acre)): 59.5 a % | Fresh wt. ([1]; Cabbage (cv. Golden Acre)): 0.2 a g/plant | Root/foot rot severity ([1]; Cabbage (cv. Golden Acre)): 2.9 b 0-9 | Dry wt. [1, 4]: 0.01 a g/plant | Emergence [1, 4]: 11.5 b % | Fresh wt. [1, 4]: 0.1 a g/plant | Root/foot rot severity [1, 4]: 4.0 a 0-9 | Dry wt. ([1]; Cucumber (cv. Imp. Long Green)): 0.06 a g/plant | Emergence ([1]; Cucumber (cv. Imp. Long Green)): 49.0 b % | Fresh wt. ([1]; Cucumber (cv. Imp. Long Green)): 0.5 a g/plant | Root/foot rot severity ([1]; Cucumber (cv. Imp. Long Green)): 2.2 b 0-9 | Dry wt. [1, 5]: 0.01 a g/plant | Emergence [1, 5]: 79.3 a % | Fresh wt. [1, 5]: 0.1 a g/plant | Root/foot rot severity [1, 5]: 1.9 a 0-9 | Dry wt. ([1]; Field pea (cv. Radley)): 0.27 a g/plant | Emergence ([1]; Field pea (cv. Radley)): 55.6 a % | Fresh wt. ([1]; Field pea (cv. Radley)): 2.4 a g/plant | Root/foot rot severity ([1]; Field pea (cv. Radley)): 3.4 a 0-9 | Dry wt. ([1]; Garden Pea (cv. Green Arrow)): 0.15 a g/plant | Emergence ([1]; Garden Pea (cv. Green Arrow)): 89.2 a % | Fresh wt. ([1]; Garden Pea (cv. Green Arrow)): 1.3 a g/plant | Root/foot rot severity ([1]; Garden Pea (cv. Green Arrow)): 2.1 b 0-9 | Dry wt. ([1]; Marigold (cv. Lemondrop)): 0.06 a g/plant | Emergence ([1]; Marigold (cv. Lemondrop)): 75.2 a % | Fresh wt. ([1]; Marigold (cv. Lemondrop)): 0.5 a g/plant | Root/foot rot severity ([1]; Marigold (cv. Lemondrop)): 2.1 a 0-9 | Dry wt. ([1]; Pepper (cv. California Wonder)): 0.01 a g/plant | Emergence ([1]; Pepper (cv. California Wonder)): 70.5 b % | Fresh wt. ([1]; Pepper (cv. California Wonder)): 0.1 a g/plant | Root/foot rot severity ([1]; Pepper (cv. California Wonder)): 1.3 a 0-9 | Dry wt. ([1]; Sugar beet (cv. US H2O)): 0.29 a g/plant | Emergence ([1]; Sugar beet (cv. US H2O)): 57.5 a % | Fresh wt. ([1]; Sugar beet (cv. US H2O)): 4.4 a g/plant | Root/foot rot severity ([1]; Sugar beet (cv. US H2O)): 1.6 b 0-9 | Dry wt. ([1]; Table beet (cv. Ruby Queen)): 0.01 a g/plant | Emergence ([1]; Table beet (cv. Ruby Queen)): 78.5 a % | Fresh wt. ([1]; Table beet (cv. Ruby Queen)): 0.1 a g/plant | Root/foot rot severity ([1]; Table beet (cv. Ruby Queen)): 2.3 b 0-9 | Dry wt. ([1]; Tomato (cv. Bush Beefsteak)): 0.01 a g/plant | Emergence ([1]; Tomato (cv. Bush Beefsteak)): 87.8 a % | Fresh wt. ([1]; Tomato (cv. Bush Beefsteak)): 0.1 a g/plant | Root/foot rot severity ([1]; Tomato (cv. Bush Beefsteak)): 1.5 a 0-9 | increased emergence by ([2]; HL seeds, 1995): 108% | increased yield by ([2]; HL seeds, 1995): 106% | decreased yield by ([2]; HL seeds, 1996): 6% | increased emergence by ([2]; HL seeds, 1996): 38% | Emergence [2, 6]: 75.9 a | Yield [2, 6]: 2892 a | Emergence [2, 7]: 91.0 a | Yield [2, 7]: 459 a | Emergence [2, 8]: 77.9 a | Yield [2, 8]: 7381 a | Emergence [2, 9]: 89.1 a | Yield [2, 9]: 3114 b | increased emergence by ([2]; VP seeds, 1995): 293% | increased yield by ([2]; VP seeds, 1995): 148% | increased emergence by ([2]; VP seeds, 1996): 55% | increased yield by ([2]; VP seeds, 1996): 4% | Emergence [2, 10]: 51.0 a | Yield [2, 10]: 260 a | Emergence [2, 11]: 29.1 a | Yield [2, 11]: 643 a | Emergence [2, 12]: 49.5 a | Yield [2, 12]: 7228 a | Emergence [2, 13]: 57.5 a | Yield [2, 13]: 4410 a
